Data from ChEMBL document CHEMBL1201862, “PubChem BioAssay data set” (2004).
Activity calls are given as the source filed them. For most assays here, no stated cut-off is given here; in the data, actives have a measured EC50 and inactives only a lower limit.

Columns and labels:
[1] = Luminescence Cell-Based Dose Response HTS to Identify Inhibitors of 5'UTR Stem-Loop Driven Prion Protein mRNA Translation in H4 Neuroglioblastoma Cells. [Related pubchem assays: 1827 (Project Summary), 1813 (Primary HTS)]; format: functional
[2] = inhibitors of firefly luciferase expression or activity, dose response, H4 neuroglioma cells, luminescence (AID 1990); format: functional, cell-based
[3] = inhibitors of SNCA 5'UTR-driven reporter translation, confirmation, H4 neuroglioma cells, luminescence (AID 1988); format: functional, cell-based
Protein skinhead-1 = target: T1, Protein skinhead-1 (Caenorhabditis elegans, UniProt P34707); format: functional
T1 sequence (P34707 whole entry): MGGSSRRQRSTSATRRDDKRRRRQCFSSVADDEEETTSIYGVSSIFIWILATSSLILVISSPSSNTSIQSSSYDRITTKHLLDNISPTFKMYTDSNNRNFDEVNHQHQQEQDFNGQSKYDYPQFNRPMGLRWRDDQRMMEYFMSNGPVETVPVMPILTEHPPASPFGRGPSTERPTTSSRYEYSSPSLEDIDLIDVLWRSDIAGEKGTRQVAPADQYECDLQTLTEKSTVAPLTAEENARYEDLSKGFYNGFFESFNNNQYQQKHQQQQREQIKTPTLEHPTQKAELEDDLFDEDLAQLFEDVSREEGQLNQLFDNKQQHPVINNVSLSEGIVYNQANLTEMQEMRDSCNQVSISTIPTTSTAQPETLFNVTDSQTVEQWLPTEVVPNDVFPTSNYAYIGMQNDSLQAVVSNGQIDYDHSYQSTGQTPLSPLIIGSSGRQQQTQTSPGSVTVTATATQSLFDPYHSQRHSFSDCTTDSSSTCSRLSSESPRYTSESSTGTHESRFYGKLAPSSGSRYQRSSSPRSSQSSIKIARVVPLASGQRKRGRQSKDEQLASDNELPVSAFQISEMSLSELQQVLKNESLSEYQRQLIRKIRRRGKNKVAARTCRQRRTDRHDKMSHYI

[4] = target: T2, Corticotropin-releasing factor receptor 2/Corticotropin-releasing factor-binding protein (Homo sapiens, UniProt P24387+Q13324); test: activators of CRF receptor 2 with binding protein – uHTS hits, confirmation (AID 602473); format: functional; conditions: read-out: EC50_Mean
T2 sequence (Q13324 whole entry): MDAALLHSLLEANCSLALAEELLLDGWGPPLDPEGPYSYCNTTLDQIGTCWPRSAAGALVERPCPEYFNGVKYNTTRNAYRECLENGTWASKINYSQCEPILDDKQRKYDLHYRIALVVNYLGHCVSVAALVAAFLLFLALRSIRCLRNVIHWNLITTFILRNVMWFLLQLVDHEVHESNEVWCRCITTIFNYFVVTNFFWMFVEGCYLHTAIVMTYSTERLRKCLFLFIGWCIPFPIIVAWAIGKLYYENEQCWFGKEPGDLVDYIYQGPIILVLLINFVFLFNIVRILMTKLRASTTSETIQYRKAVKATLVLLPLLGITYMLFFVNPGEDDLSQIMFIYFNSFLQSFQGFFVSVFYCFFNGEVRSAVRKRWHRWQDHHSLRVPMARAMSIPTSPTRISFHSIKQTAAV
T2 sequence (P24387 whole entry): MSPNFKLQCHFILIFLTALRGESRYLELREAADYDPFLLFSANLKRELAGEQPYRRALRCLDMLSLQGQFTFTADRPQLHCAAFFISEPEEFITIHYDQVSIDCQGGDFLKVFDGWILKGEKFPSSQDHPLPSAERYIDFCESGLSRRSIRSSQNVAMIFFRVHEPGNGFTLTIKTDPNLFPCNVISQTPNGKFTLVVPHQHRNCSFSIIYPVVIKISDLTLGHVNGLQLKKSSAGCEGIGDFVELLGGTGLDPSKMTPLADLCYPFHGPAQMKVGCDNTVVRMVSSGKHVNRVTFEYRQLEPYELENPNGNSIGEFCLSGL

[5] = growth suppression of PTEN-null colon cells, dose response, cell-based, HCT116 PTEN knockout (AID 1047); format: functional;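 further: HCT116 colon tumor cells with PTEN knocked out; cells exposed to compound for 60 hours before readout; potency for loss of cell viability measured by luminescence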
[6] = growth suppression of beta-catenin-knockout colon cells, dose response, cell-based, HCT116, human colon tumor (AID 1045); format: functional;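 further: HCT116 colon tumor cells with beta catenin knocked out; cells exposed to compound for 60 hours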
[7] = system: Streptococcus sp. 'group A'; test: growth inhibition of control SK(-) GAS strain, dose response, counter-screen for streptokinase expression inhibitor project, luminescence, kanamycin, BacTiterGlo, confirmation (AID 1900); format: functional, organism-based
Streptococcus = test: Group A Streptococcus viability loss, dose response, counter-screen for streptokinase expression inhibitor project, luminescence, BacTiterGlo (AID 1915); format: functional, organism-based;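 further: potency for reduction of bacterial viability or growth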
Paired box protein Pax-8 = Paired box protein Pax-8 (Homo sapiens, UniProt Q06710); test: inhibitors of PAX8-driven TPO luciferase reporter, dose response, RMG-I cells, cherry-pick (AID 687027); format: functional, cell-based;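 further: luciferase reporter driven by Pax8 target thyroperoxidase promoter measured by SteadyGlo luminescence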
BJ [8] = test: cytotoxicity toward BJ-TERT-LT-ST fibroblasts, dose response, cell-based, RAS-independent, luminescence (AID 1935); format: functional; conditions: Homo sapiens;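 further: BJ fibroblasts immortalized with TERT plus LT and ST oncogenes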
BJ [9] = test: cells; format: functional, cell-based; conditions: Homo sapiens
BJ [10] = test: cytotoxicity toward BJ-TERT fibroblasts, dose response, cell-based, RAS-independent, luminescence (AID 1933); format: functional; conditions: Homo sapiens
[11] = cytotoxicity toward DRD oncogenic fibroblasts, dose response, cell-based, non-viral oncogenic, luminescence (AID 1934); format: functional; conditions: Homo sapiens
[12] = target: T2, Corticotropin-releasing factor receptor 2/Corticotropin-releasing factor-binding protein; test: Dose Response confirmation of uHTS hits for small molecule antagonists of the CRF-binding protein and CRF-R2 receptor complex.; format: functional; conditions: read-out: IC50_Mean
[13] = target: T3, Heat shock factor protein 1 (Mus musculus, UniProt P38532); test: HSF1 potentiators in luciferase reporter cells, confirmation, cell-based, NIH3T3, luminescence, dose retest (AID 435004); format: functional;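 further: stress induced by proteasome inhibitor MG132 added 30 min after compound; luciferase reporter driven by HSF1 response element in NIH3T3 cells; actives raise luminescence as potentiators of the MG132 stress response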
T3 sequence (P38532 whole entry): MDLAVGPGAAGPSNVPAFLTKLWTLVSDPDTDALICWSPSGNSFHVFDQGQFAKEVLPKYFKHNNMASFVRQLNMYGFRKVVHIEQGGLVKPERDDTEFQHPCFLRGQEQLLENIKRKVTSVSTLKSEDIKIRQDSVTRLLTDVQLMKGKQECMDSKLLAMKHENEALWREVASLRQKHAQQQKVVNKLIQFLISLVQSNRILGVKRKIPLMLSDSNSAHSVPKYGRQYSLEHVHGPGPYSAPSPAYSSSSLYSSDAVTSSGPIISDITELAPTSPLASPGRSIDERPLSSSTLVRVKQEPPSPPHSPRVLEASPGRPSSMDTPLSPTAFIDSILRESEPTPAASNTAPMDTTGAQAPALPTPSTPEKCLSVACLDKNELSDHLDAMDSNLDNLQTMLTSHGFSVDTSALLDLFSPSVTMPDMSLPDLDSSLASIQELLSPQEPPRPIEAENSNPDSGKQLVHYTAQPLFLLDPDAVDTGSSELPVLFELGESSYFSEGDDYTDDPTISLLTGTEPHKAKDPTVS

H4 = test: Luminescence Cell-Based Dose Response HTS to Identify Activators of 5'UTR Stem-Loop Driven Prion Protein mRNA Translation in H4 Neuroglioblastoma Cells. [Related pubchem assays: 1829 (Project Summary), 1814 (Primary HTS)]; format: functional; conditions: Homo sapiens
[14] = Luminescence Cell-Based Dose Response HTS to Identify Activators of Luciferase Translation or Activity in H4 […] Cells. [Related pubchem assays: 1829 (Project Summary), 1814 (Primary HTS)]; format: functional

Sequence of Paired box protein Pax-8 (Q06710 whole entry): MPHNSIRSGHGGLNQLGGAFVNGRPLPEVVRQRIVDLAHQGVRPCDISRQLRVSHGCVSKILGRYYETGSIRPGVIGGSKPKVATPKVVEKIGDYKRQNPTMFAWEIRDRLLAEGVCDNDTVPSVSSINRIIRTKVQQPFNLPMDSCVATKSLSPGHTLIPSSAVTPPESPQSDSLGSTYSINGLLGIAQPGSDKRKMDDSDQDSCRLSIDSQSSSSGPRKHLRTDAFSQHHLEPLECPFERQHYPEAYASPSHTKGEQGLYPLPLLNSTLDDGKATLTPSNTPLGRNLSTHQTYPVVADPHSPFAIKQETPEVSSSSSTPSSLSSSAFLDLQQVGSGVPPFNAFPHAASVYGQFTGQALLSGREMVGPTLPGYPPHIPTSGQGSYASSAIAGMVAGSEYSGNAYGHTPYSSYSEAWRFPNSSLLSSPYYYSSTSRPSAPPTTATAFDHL

Question: With C/C=C/Cn1c(Br)nc2c1c(=O)n(C)c(=O)n2C as the compound, how does the EC50 [1] read?
Answer: > 120 µM (not active)

Question: And the EC50 [2]?
Answer: > 120 µM (not active)

Question: What about the EC50 [3] of the same compound?
Answer: 59.3 µM (active)

Question: With Cc1cc(C(=O)CN2C(=O)NC3(CCCc4ccccc43)C2=O)c(C)n1Cc1ccccc1 (configuration not stated) as the compound, how does the IC50 (Protein skinhead-1) read?
Answer: > 100 µM (inactive)

Question: With CN(C)c1ccc(/C=C(/C#N)C(=O)Nc2nc3c(s2)CCN(Cc2ccccc2)C3)cc1 as the compound, how does the IC50 (Protein skinhead-1) read?
Answer: > 100 µM (inactive)

Question: What about the EC50 [4] of the same compound?
Answer: 2.1 µM (active)

Question: Which EC50 [5] does the source give for OC(CCCN1CCC(O)(c2ccc(Cl)cc2)CC1)c1ccc(F)cc1 (configuration not stated) [HYDROXYHALOPERIDOL] here?
Answer: 29.3 µM (active)

Question: What about the EC50 [6] of the same compound?
Answer: 28.4 µM (active)

Question: What does the source list for CCCCN(CC)S(=O)(=O)c1ccc(C(=O)Nc2nnc(-c3ccccc3Cl)o2)cc1?
Answer: EC50 [7]: 0.2 µM (active); EC50 [1]: 12.1 µM (active); EC50 [2]: 11.9 µM (active); EC50 [3]: 10 µM (active); EC50 (Streptococcus): 0.737 µM (active)

Question: For COc1ccc(C)cc1C(=O)CCC(=O)Nc1ccccc1N1CCOCC1, which EC50 [5] is on record?
Answer: 7.32 µM (active)

Question: What about the EC50 [6] of the same compound?
Answer: 5.33 µM (active)

Question: Which AC50 (Paired box protein Pax-8) does the source give for O=S(=O)(c1ccc(F)cc1)N1C[C@H]2[C@@H](c3ccccc31)[C@H](CO)N2Cc1ccccc1Cl here?
Answer: 11 µM (active)

Question: For C[C@H]1CCCCO[C@H](CN(C)C(=O)Nc2ccc(C(F)(F)F)cc2)[C@@H](C)CN([C@@H](C)CO)C(=O)c2cc(NS(=O)(=O)c3cccs3)ccc2O1, which AC50 (Paired box protein Pax-8) is on record?
Answer: 7.75 µM (active)

Question: With COc1nc(-c2ccccc2)ccc1-c1noc(-c2ccco2)n1 as the compound, how does the IC50 (Protein skinhead-1) read?
Answer: > 100 µM (inactive)

Question: Which results are given for Cc1cc(N2CCN(Cc3cn(C)nc3-c3cccc(Cl)c3)CC2)cc(C)n1?
Answer: EC50 (BJ [8]): > 150 µM (inconclusive); EC50 (BJ [9]): 18.7 µM (active); EC50 (BJ [10]): 11.3 µM (active); EC50 [1]: 8.87 µM (active); EC50 [2]: 10.4 µM (active); EC50 [3]: 10.6 µM (active); EC50 [11]: 11.8 µM (active)

Question: Which EC50 [4] does the source give for COc1ccc(NC(=O)c2cc(C(=O)Nc3ccc(OC)cc3OC)cc([N+](=O)[O-])c2)c(OC)c1 here?
Answer: > 53 µM (inactive)

Question: And the IC50 [12]?
Answer: > 47.1 µM (inactive)

Question: For O=C(c1ccc2c(=O)n3c(nc2c1)CCCCC3)N1CCN(C(c2ccccc2)c2ccccc2)CC1, which EC50 [1] is on record?
Answer: 28.3 µM (active)

Question: And the EC50 [2]?
Answer: 12.7 µM (active)

Question: And the EC50 [3]?
Answer: 24.1 µM (active)

Question: What about the EC50 [13] of the same compound?
Answer: > 260 µM (inactive)

Question: Which IC50 (Protein skinhead-1) does the source give for CCn1c2ccc(F)cc2c2nc3ccccc3nc21 here?
Answer: > 100 µM (inactive)

Question: With C=CCN(c1ccc(C(=O)NC(C)C)cc1)S(C)(=O)=O as the compound, how does the IC50 (Protein skinhead-1) read?
Answer: > 100 µM (inactive)

Question: With COc1cc(/C=N/NC(=O)c2ccc(CN3C(=O)c4cccc5cccc3c45)cc2)cc(OC)c1O as the compound, how does the AC50 (Paired box protein Pax-8) read?
Answer: 0.286 µM (active)

Question: Which IC50 (Protein skinhead-1) does the source give for O=c1c2cc(-c3ccccc3)sc2ncn1/N=C/c1ccco1 here?
Answer: 22.1 µM (active)

Question: What about the EC50 (H4) of the same compound?
Answer: 56.4 µM (active)

Question: And the EC50 [14]?
Answer: 14.8 µM (active)

Question: For CCCC1(CCC)NC(=O)N(CC(=O)Nc2ccc(Cl)c(S(=O)(=O)N3CCOCC3)c2)C1=O, which EC50 [4] is on record?
Answer: > 53 µM (inactive)

Question: And the IC50 [12]?
Answer: > 47.1 µM (inactive)

Question: With CCCCc1nnc2c(N(C)S(=O)(=O)c3ccccc3)nc3ccccc3n12 as the compound, how does the EC50 [4] read?
Answer: > 53 µM (inactive)

Question: And the IC50 [12]?
Answer: > 47.1 µM (inactive)

Question: Which AC50 (Paired box protein Pax-8) does the source give for C[C@H](O)[C@@H]1CN2CCc3c([nH]c4ccc(-c5ccc6c(c5)OCO6)cc34)[C@@H]2C[C@@H]1N(C)C(=O)NC1CCCCC1 here?
Answer: 5.9 µM (active)
